According to publication PMC9936538, “Structure–Activity Relationship of N-Ethyl-Hexedrone Analogues: Role of the α-Carbon Side-Chain Length in the Mechanism of Action, Cytotoxicity, and Behavioral Effects in Mice” (ACS Chemical Neuroscience, 2023):

Legend:
[1] = system: NGF-differentiated PC12 cells; test: Cytotoxicity in NGF-differentiated PC12 cells, WST-8 cell viability assay; assay type: cell-based; conditions: WST-8, 0.01–8.00 mM, 24 h
Procedure: Pheochromocytoma cells (PC12) cells were cultured in collagen-coated dishes in DMEM supplemented with heat-inactivated 5% FBS, 10% horse serum, 10 mM HEPES, 2 mM glutamine, 25 UI/mL penicillin, and 25 μg/mL streptomycin (maintenance medium) and grown at 37 °C in a humidified 5% CO2 atmosphere. Cell differentiation was performed as described[54] with minor modifications. In brief, cells were seeded (250.000 cells/well) onto 96-well plates in the maintenance medium, and after 24 h, the medium was changed to a differentiation medium containing 50 ng/mL NGF. After 24 h, neurite outgrowth was already apparent.
Treatments with different concentrations of the drug in DMEM were performed 48 h after cell differentiation. 10 μL of the tested drug was added per well, in triplicate, and cells were incubated for 24 h at 37 °C in a humidified 5% CO2 atmosphere. Thereafter, the medium was removed and immediately replaced with a maintenance medium. 10 μL of the CCK-8 Cell Counting Kit, based on 2-(2-methoxy-4-nitrophenyl)-3-(4-nitrophenyl)-5-(2,4-disulfophenyl)-2H-tetrazolium, monosodium salt (WST-8), was added per well and was incubated for 2 h at 37 °C in a humidified 5% CO2 atmosphere. This method has been defined as a good alternative to the 3-(4,5-dimethylthiazol-2-yl)-2,5-diphenyltetrazoliumbromide (MTT) assay.[63] Optical density was measured at 450 nm, using a microplate reader.
For in vitro assays, data were normalized with 100% defined as the mean of the technical replicates in the control group and expressed as mean ± SEM. Nonlinear regression was used to fit the different competition curves. Data were plotted and best fitted to a sigmoidal dose–response curve from which an IC50 or LC50 value was obtained. Transporter ratios were calculated as (1/DAT IC50: 1/SERT IC50). Although IC50 values at inhibiting 5-HT uptake for some compounds tested are expressed as >100 μM for clarity purposes, DAT/SERT ratios were calculated with the original raw data. The Cheng–Prusoff equation was used to calculate Ki (affinity): Ki = EC50/(1 + [radioligand concentration/Kd]).[65] The sample size for behavioral experiments was determined using GPower software. One-way or two-way ANOVA, and subsequent Tukey’s posthoc test, conducted only if F was significant, was used to determine the effects of cathinones on cytotoxicity, HLA, OF, and CPP experiments. The α error probability was set at 0.05 (p < 0.05). The exact size group for the behavioral experiments is shown in the corresponding figure legends. All statistic calculations were carried out using GraphPad Prism (GraphPad software, San Diego, CA, USA).

Swiss CD-1 mice [2] = system: Swiss CD-1 mice; set-up: method as in PMID 32535718; conditions: 4 and 16 mg/kg subcutaneous injections; cited from earlier work
Swiss CD-1 mice [3] = system: Swiss CD-1 mice; set-up: method as in PMID 33155384; conditions: 10 and 25 mg/kg injections; cited from earlier work
Swiss CD-1 mice [4] = test: Open-field (OF) test, center versus periphery (anxiety-like behavior); assay type: in vivo; conditions: 10 mg/kg i.p.
Procedure: Male Swiss CD-1 mice (Janvier, Le Genest, France) weighing 30–35 g (6–8 weeks old), housed in temperature-controlled conditions (22 ± 1 °C) under a 12 h light/dark cycle and with free access to food and drinking water (standard laboratory diet, Panlab SL, Barcelona, Spain), were randomly assigned to an experimental group. Efforts were made to minimize animal use and suffering.
The anxiety-like effects of the test compounds were assessed through an OF test as described.[64] Animals were placed individually in the center of an open-field arena (25 cm length × 25 cm width × 40 cm height), and the time spent, in seconds, in the center (8 × 8 cm) or the periphery of the arena was monitored for 60 min (Smart 3.0 Panlab, Barcelona, Spain).

SMILES	concentration at which cytotoxicity starts [1]	CPP (Swiss CD-1 mice [2])	locomotor activity (Swiss CD-1 mice [3])	anxiogenic effect in OF test (Swiss CD-1 mice [4])
CCCCCC(NCC)C(=O)c1ccccc1 (stereo not shown) [NEHP, N-ethyl-heptedrone]	100 µM	–	–	–
CCCCC(NCC)C(=O)c1ccccc1 (stereo not shown) [NEH, N-ethyl-hexedrone]	–	significant CPP	increase in locomotor activity	acute anxiogenic effects
